# Assay results as given in patent publication EP0045161A1, “Amides of 4-oxo-5-amidohexanoic acid derivatives” (IMPERIAL CHEMICAL INDUSTRIES PLC, priority 1980, dated 1982).
# Target: angiotensin converting enzyme (Homo sapiens, UniProt P12821)
# Assay: inhibition of angiotensin converting enzyme (cleavage of angiotensin I or a related synthetic peptide by ACE)
# Format: biochemical
# From the text: ACE is the enzyme which converts angiotensin I to angiotensin II.
# angiotensin converting enzyme, sequence (P12821 30-1306, species assumed): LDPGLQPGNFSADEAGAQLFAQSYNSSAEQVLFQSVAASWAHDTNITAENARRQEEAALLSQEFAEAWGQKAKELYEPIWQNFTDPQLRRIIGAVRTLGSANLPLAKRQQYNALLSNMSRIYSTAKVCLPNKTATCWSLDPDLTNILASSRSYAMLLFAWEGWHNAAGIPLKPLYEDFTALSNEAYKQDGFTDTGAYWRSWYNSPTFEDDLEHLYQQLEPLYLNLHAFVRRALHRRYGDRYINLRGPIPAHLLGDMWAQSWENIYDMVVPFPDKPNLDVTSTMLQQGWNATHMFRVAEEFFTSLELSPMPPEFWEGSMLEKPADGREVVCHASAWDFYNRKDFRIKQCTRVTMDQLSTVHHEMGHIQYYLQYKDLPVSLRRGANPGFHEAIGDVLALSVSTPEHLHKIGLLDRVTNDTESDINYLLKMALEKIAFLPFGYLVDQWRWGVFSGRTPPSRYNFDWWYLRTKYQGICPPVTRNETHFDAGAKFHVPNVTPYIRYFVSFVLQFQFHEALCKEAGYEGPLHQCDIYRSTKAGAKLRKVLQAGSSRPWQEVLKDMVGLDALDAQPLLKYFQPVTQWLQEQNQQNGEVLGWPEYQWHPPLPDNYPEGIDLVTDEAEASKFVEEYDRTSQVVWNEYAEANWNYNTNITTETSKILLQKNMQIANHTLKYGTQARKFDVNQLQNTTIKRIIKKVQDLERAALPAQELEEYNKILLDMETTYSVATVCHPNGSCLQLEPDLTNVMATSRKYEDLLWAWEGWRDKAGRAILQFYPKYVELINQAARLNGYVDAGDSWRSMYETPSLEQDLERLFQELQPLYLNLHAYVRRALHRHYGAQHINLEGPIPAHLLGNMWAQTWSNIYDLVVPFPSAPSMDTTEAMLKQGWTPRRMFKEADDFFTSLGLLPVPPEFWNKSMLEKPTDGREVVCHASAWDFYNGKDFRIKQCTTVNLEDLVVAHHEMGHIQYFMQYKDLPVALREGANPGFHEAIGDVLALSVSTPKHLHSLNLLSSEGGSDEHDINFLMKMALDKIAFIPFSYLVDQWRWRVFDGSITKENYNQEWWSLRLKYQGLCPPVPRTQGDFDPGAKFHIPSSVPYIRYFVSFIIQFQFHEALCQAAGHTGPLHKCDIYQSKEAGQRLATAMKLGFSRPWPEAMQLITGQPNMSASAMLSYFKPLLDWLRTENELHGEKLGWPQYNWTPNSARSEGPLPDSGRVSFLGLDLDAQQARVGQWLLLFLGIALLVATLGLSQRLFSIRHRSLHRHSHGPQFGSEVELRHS
"times more active as an inhibitor or angiotensin converting enzyme (relative to the less polar isomer (Compound No. 6D), isomers at the 5-carbon atom of the hexanoyl chain) [times]","times more active as an inhibitor of angiotensin converting enzyme (relative to the more polar isomer (Compound No. 6B), isomers at the 2-carbon atom of the hexanoyl chain) [times]",Compound
100,–,"CC(CC(=O)C(Cc1ccccc1)NC(=O)c1ccccc1)C(=O)N1CCC[C@H]1C(=O)OC(C)(C)C (single isomer, unassigned) [Compound No. 6C]"
–,10,"CC(CC(=O)C(Cc1ccccc1)NC(=O)c1ccccc1)C(=O)N1CCC[C@H]1C(=O)OC(C)(C)C (single isomer, unassigned) [Compound No. 6A]"
